Measurements reported in PubChem BioAssay (NCI).
“And” between values parts separate entries of the source, which are not always exact repeats. Identical values can stand only once.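 In this assay, cells in 96-well plates receive the compound at five concentrations for 48 hours. Endpoints are linearly interpolated between the surrounding concentrations. The concentration for 50% growth inhibition is given as GI50. TGI: total growth inhibition.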

Key:
Assay in all cases: growth of human tumour cells (NCI), 48 h
NCI-H460 lung = system: NCI-H460 lung
SK-MEL-2 melanoma = system: SK-MEL-2 melanoma
SK-MEL-5 melanoma = system: SK-MEL-5 melanoma
EKVX NSCLC = system: EKVX NSCLC
HOP-92 NSCLC = system: HOP-92 NSCLC
RPMI-8226 leukemia = system: RPMI-8226 leukemia
NCI-H522 lung = system: NCI-H522 lung
T-47D breast = system: T-47D breast
KM12 colon = system: KM12 colon
SF-539 CNS = system: SF-539 CNS
NCI-H226 lung = system: NCI-H226 lung

| Structure (SMILES) | TGI (NCI-H460 lung) | TGI (SK-MEL-2 melanoma) | TGI (SK-MEL-5 melanoma) | TGI (EKVX NSCLC) | TGI (HOP-92 NSCLC) | TGI (RPMI-8226 leukemia) | TGI (NCI-H522 lung) | TGI (T-47D breast) | TGI (KM12 colon) | TGI (SF-539 CNS) | TGI (NCI-H226 lung) | GI50 (NCI-H226 lung) |
| --- | --- | --- | --- | --- | --- | --- | --- | --- | --- | --- | --- | --- |
| CCOC(=O)c1cc2c(OCc3ccccc3)c(OC)cc3c2c(n1)N(c1ccc(OC)cc1)C(C)C3 (stereo not given) | > 50 µM | > 50 µM | > 50 µM | > 50 µM | 42.9 µM | > 50 µM | > 50 µM |  |  |  |  |  |
| CC1(C)CC2(C)CC1CC2(O)c1ccccc1 (stereo not given) | > 100 µM |  | > 100 µM |  | > 100 µM |  | > 100 µM | > 100 µM | > 100 µM | > 100 µM | > 100 µM |  |
| Cc1ccc(S(=O)(=O)NC(=O)NC(CCCCN=C(N)N)C(=O)O)cc1 (stereo not given) | > 100 µM | > 100 µM | > 100 µM |  | > 100 µM | > 100 µM | > 100 µM | > 100 µM | > 100 µM | > 100 µM |  |  |
| COC(=O)CC(C(C(=O)OCc1ccccc1)C(C)O)N1C(=O)OC(c2ccccc2)C1c1ccccc1 (stereo not given) | > 100 µM | > 100 µM | > 100 µM | > 100 µM |  | > 100 µM |  |  |  | > 100 µM | > 100 µM |  |
| COc1cc(C2C(Cl)C(=O)N2NC(=O)c2ccc(NC(C)=O)cc2)ccc1O (stereo not given) | > 100 µM | > 100 µM | > 100 µM | > 100 µM | > 100 µM | > 100 µM | > 100 µM |  |  | > 100 µM | > 100 µM |  |
| Cc1ccc(-n2cc(-c3ccc(Cl)cc3)c3c(NN)ncnc32)cc1 | 14.1 µM | 47.1 µM | 7.23 µM | 9.99 µM | 9.04 µM |  | 15.8 µM | 26.6 µM | 29 µM | 11.3 µM | 7.96 µM |  |
| O=c1[nH]c(=O)n(COCCO)c2ccsc12 | > 100 µM | > 100 µM | > 100 µM | > 100 µM | > 100 µM | > 100 µM | > 100 µM |  | > 100 µM | > 100 µM | > 100 µM |  |
| C=C1[C@@](C)([C@@H]2CCCS2)[C@H]2C(C)=C[C@]1(C)n1c(=O)n(-c3ccccc3)c(=O)n12 | > 100 µM | > 100 µM | > 100 µM | > 100 µM |  | > 100 µM | > 100 µM | > 100 µM | > 100 µM | > 100 µM | > 100 µM |  |
| Cc1cn(C2CC(CCCO)C(CO)O2)c(=O)[nH]c1=O (stereo not given) | > 100 µM | > 100 µM | > 100 µM | > 100 µM |  | > 100 µM | > 100 µM |  | > 100 µM |  | > 100 µM | > 100 µM and 18.4 µM |
| CCOC(=O)NNC(=O)NCc1ccccc1CNC(=O)NNC(=O)OCC | > 100 µM | > 100 µM | > 100 µM | > 100 µM |  | > 100 µM | > 100 µM | > 100 µM | > 100 µM | > 100 µM | > 100 µM |  |
| COC(=O)NNC(c1ccc(Cl)cc1)c1ccc(Cl)cc1 | 35.2 µM | 26.6 µM | 31.2 µM | 40 µM |  | 52 µM | 38.7 µM | 68.2 µM | 37 µM | 39 µM | 35.3 µM |  |
| O=C1CC(C(CC(=O)c2ccccc2)c2ccccc2)C(=O)c2ccccc2N1 (stereo not given) | > 100 µM | 41.4 µM | > 100 µM | > 100 µM |  | > 100 µM |  | 64.4 µM | > 100 µM | > 100 µM | 77.8 µM |  |
| Cc1ccc(N(O)C(C)(C)C)cc1 | > 100 µM | > 100 µM | > 100 µM | > 100 µM | > 100 µM | > 100 µM | > 100 µM |  | > 100 µM | > 100 µM | > 100 µM |  |
| COc1cccc(/C(Cl)=C(\C=O)c2cccc(OC)c2)c1 | 26.4 µM | 32.7 µM | 23.8 µM | 38.7 µM | 36 µM | 45.1 µM | 11.4 µM |  | 26.3 µM | 37.1 µM | 24.8 µM |  |
| COCC1OC(S(=O)(=O)c2ccccc2)C(O)C(OC)C1OC (stereo not given) | > 100 µM | > 100 µM | > 100 µM | > 100 µM |  |  | > 100 µM | > 100 µM | > 100 µM | > 100 µM | > 100 µM |  |
| CCOc1ccc(N=NC2C(=O)N(C(=O)CC(=O)Nc3ccccc3)N=C2C)cc1 (stereo not given) | > 100 µM | > 100 µM | > 100 µM | > 100 µM | 90.7 µM |  | > 100 µM | > 100 µM | > 100 µM | > 100 µM | > 100 µM |  |
| C=C[C@@]1(O)CCCC[C@@H]1CC(Sc1ccccc1)Sc1ccccc1 | 26.2 µM | 32.3 µM | 30.8 µM | 31.1 µM |  | 90.2 µM | 26.8 µM | 27.8 µM | 37.9 µM |  | 38.7 µM |  |
| N=C(N)SCCC(=O)CCSC(=N)N | > 100 µM |  | > 100 µM |  | > 100 µM |  | > 100 µM | > 100 µM | > 100 µM |  | > 100 µM |  |
| O=NN(CCF)C(=O)NC1CC2CCC1C2 (stereo not given) | > 100 µM | > 100 µM | > 100 µM | > 100 µM | > 100 µM | > 87.7 µM | > 100 µM |  | > 100 µM | > 100 µM |  |  |
| CC1(C)C(CCO)CC1n1ccc(=O)[nH]c1=O (stereo not given) |  | > 100 µM | > 100 µM | > 100 µM | > 100 µM |  |  | > 100 µM | > 100 µM | > 100 µM | > 100 µM |  |
| Cc1ccnc2nc(N)ccc12 | > 100 µM | > 100 µM | > 100 µM | > 100 µM |  | > 100 µM | > 100 µM | > 100 µM | > 100 µM | > 100 µM | > 100 µM |  |
| CCC(COC(=O)CC[C@@H](NC(=O)C(C)NC(=O)C(C)OC1C(O)C(CO)OC(OCc2ccccc2)C1NC(C)=O)C(N)=O)NC1c2ccccc2Nc2cccc([N+](=O)[O-])c21 (stereo not given in full) | > 100 µM | > 100 µM | > 100 µM | > 100 µM | > 100 µM | > 100 µM | > 100 µM |  | > 100 µM | > 100 µM | > 100 µM |  |
